The text below walks through data of the supplement of paper PMC11061612.

Test in all cases: combination Emax (second highest fraction inhibited in the dose matrix, 72 h); higher = more inhibition; extreme values may be limits of the assay
Test [1] has as its system HOP-62 (Lung Adenocarcinoma). In outline:
(§1)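 Cell lines grown in DMEM/F12 or RPMI with 10% FBS were plated in 1536-well plates and held 24 hours at 37°C, 5% CO2 before 72 hours of exposure to two-drug dose matrices, with DMSO typically at 0.2%. CellTiter-Glo 2.0 luminescence gave viability, which was converted to inhibition. Vehicle wells were set to 0 and blank wells to 1. Combination Emax is the second-highest inhibition in the matrix, and Bliss excess is the observed combination effect minus the expected EA + EB − EA·EB, where EA and EB are the single-agent effects.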

Test [2] deals with C-4-I (Cervical Carcinoma). In outline: as §1
The subject of test [3] is JVM-3 (B-Cell Non-Hodgkin's Lymphoma). In outline: as §1
Test [4] deals with HGC-27 (Gastric Carcinoma). In outline: as §1

Turning to `CN(CCO)CC[C@H](CSc1ccccc1)Nc1ccc(S(=O)(=O)NC(=O)c2ccc(N3CCC([C@@H](O)c4ccccc4-c4ccc(Cl)cc4)CC3)cc2)cc1S(=O)(=O)C(F)(F)F` [AZD4320] + C1CN(CCC1(C(=O)N[C@@H](CCO)C2=CC=C(C=C2)Cl)N)C3=NC=NC4=C3C=CN4 [Capivasertib] (first compound max 1 µM, 7x7, partner max 3 µM), the “combination Emax” value came to 0.115 in test [1], 0.145 in test [2], 0.889 in test [3] and 0.775 in test [4].
Regarding `CN(CCO)CC[C@H](CSc1ccccc1)Nc1ccc(S(=O)(=O)NC(=O)c2ccc(N3CCC([C@@H](O)c4ccccc4-c4ccc(Cl)cc4)CC3)cc2)cc1S(=O)(=O)C(F)(F)F` [AZD4320] + C=CCn1c(=O)c2cnc(Nc3ccc(N4CCN(C)CC4)cc3)nc2n1-c1cccc(C(C)(C)O)n1 [AZD1775] (first compound max 1 µM, partner max 1 µM), the “combination Emax” value in test [1] amounted to 0.458; in test [2], 0.946; in test [3], 1; in test [4], 0.543.
Regarding `CN(CCO)CC[C@H](CSc1ccccc1)Nc1ccc(S(=O)(=O)NC(=O)c2ccc(N3CCC([C@@H](O)c4ccccc4-c4ccc(Cl)cc4)CC3)cc2)cc1S(=O)(=O)C(F)(F)F` [AZD4320] + CCN(CCO)CCCOc1ccc2c(Nc3cc(CC(=O)Nc4cccc(F)c4)[nH]n3)ncnc2c1 [AZD2811] (first compound max 1 µM, 7x7, partner max 1 µM), the “combination Emax” value in test [1] amounted to 0.359; in test [2] it was 0.657; in test [3], 1; in test [4] it was 0.96.
As to `CN(CCO)CC[C@H](CSc1ccccc1)Nc1ccc(S(=O)(=O)NC(=O)c2ccc(N3CCC([C@@H](O)c4ccccc4-c4ccc(Cl)cc4)CC3)cc2)cc1S(=O)(=O)C(F)(F)F` [AZD4320] + C[C@@H]1COCCN1C2=NC(=NC(=C2)C3(CC3)[S@](=N)(=O)C)C4=C5C=CNC5=NC=C4 [AZD6738] (first compound max 1 µM, 7x7, partner max 10 µM), the “combination Emax” value was 0.599 in test [1], 0.952 in test [2], 0.993 in test [3] and 0.812 in test [4].
Consider `CN(CCO)CC[C@H](CSc1ccccc1)Nc1ccc(S(=O)(=O)NC(=O)c2ccc(N3CCC([C@@H](O)c4ccccc4-c4ccc(Cl)cc4)CC3)cc2)cc1S(=O)(=O)C(F)(F)F` [AZD4320] + C[C@@H](Nc1cc(F)cc(F)c1)c1cc(C(=O)N(C)C)cc2c(=O)cc(N3CCOCC3)oc12 [AZD8186] (first compound max 1 µM, 7x7, partner max 3 µM), for which the “combination Emax” value in test [1] is 0.602; in test [2] it was 0.611; in test [3] it was 1; in test [4] it was 0.64.
On the same counts, the results for `CN(CCO)CC[C@H](CSc1ccccc1)Nc1ccc(S(=O)(=O)NC(=O)c2ccc(N3CCC([C@@H](O)c4ccccc4-c4ccc(Cl)cc4)CC3)cc2)cc1S(=O)(=O)C(F)(F)F` [AZD4320] + Cc1cc2ncnn2cc1Nc1ncc2c(n1)n(C1CCOCC1)c(=O)n2C [AZD7648] (first compound max 1 µM, 7x7, partner max 10 µM) are 0.167, 0.132, 0.916 and 0.473.
`CN(CCO)CC[C@H](CSc1ccccc1)Nc1ccc(S(=O)(=O)NC(=O)c2ccc(N3CCC([C@@H](O)c4ccccc4-c4ccc(Cl)cc4)CC3)cc2)cc1S(=O)(=O)C(F)(F)F` [AZD4320] + Cn1cnc2c(F)c(Nc3ccc(Br)cc3Cl)c(C(=O)NOCCO)cc21 [Selumetinib] (first compound max 1 µM, 7x7, partner max 3 µM): the “combination Emax” value in test [1] was determined as 0.536; in test [2], 0.52; in test [3] it was 1; in test [4], 0.381.
On the same counts, the results for `Cc1cc2ncnn2cc1Nc1ncc2c(n1)n(C1CCOCC1)c(=O)n2C` [AZD7648] + C=CCn1c(=O)c2cnc(Nc3ccc(N4CCN(C)CC4)cc3)nc2n1-c1cccc(C(C)(C)O)n1 [AZD1775] (first compound max 10 µM, partner max 1 µM) are 0.241, 0.899, 0.904 and 0.771.
Consider `Cc1cc2ncnn2cc1Nc1ncc2c(n1)n(C1CCOCC1)c(=O)n2C` [AZD7648] + CCN(CCO)CCCOc1ccc2c(Nc3cc(CC(=O)Nc4cccc(F)c4)[nH]n3)ncnc2c1 [AZD2811] (first compound max 10 µM, 7x7, partner max 1 µM), for which the “combination Emax” value came to 0.204 in test [1], 0.298 in test [2], 0.592 in test [3] and 0.856 in test [4].
On to `Cc1cc2ncnn2cc1Nc1ncc2c(n1)n(C1CCOCC1)c(=O)n2C` [AZD7648] + CN(C)CCCOc1ccc(-c2ccc3ncc4c(c3c2)n(C2CCOCC2)c(=O)n4C)cn1 [AZD0156] (first compound max 10 µM, 7x7, partner max 1 µM), for which the “combination Emax” value in test [1] stood at 0.144; in test [2], 0.211; in test [3], 0.638; in test [4], 0.611.
On the same counts, the results for `Cc1cc2ncnn2cc1Nc1ncc2c(n1)n(C1CCOCC1)c(=O)n2C` [AZD7648] + C[C@@H]1COCCN1C2=NC(=NC(=C2)C3(CC3)[S@](=N)(=O)C)C4=C5C=CNC5=NC=C4 [AZD6738] (first compound max 10 µM, 7x7, partner max 10 µM) are 0.435, 0.929, 0.809 and 0.849.
In the case of `Cc1cc2ncnn2cc1Nc1ncc2c(n1)n(C1CCOCC1)c(=O)n2C` [AZD7648] + O=C(c1cc(Cc2n[nH]c(=O)c3ccccc23)ccc1F)N1CCN(C(=O)C2CC2)CC1 [Olaparib] (first compound max 10 µM, 7x7, partner max 10 µM), the “combination Emax” value in test [1] is 0.145; in test [2], 0.224; in test [3] it was 0.499; in test [4] it was 0.629.
As for `Cc1nc(Nc2ncc(C(=O)Nc3c(C)cccc3Cl)s2)cc(N2CCN(CCO)CC2)n1` [Dasatinib] + CC(=O)Nc1cccc(-n2c(=O)n(C3CC3)c(=O)c3c(Nc4ccc(I)cc4F)n(C)c(=O)c(C)c32)c1 [Trametinib] (first compound max 2 µM, 7x7, partner max 1 µM), the figures for the “combination Emax” value in test [1], in test [2] and in test [4] were 0.749, 0.731 and 0.726, respectively.
On to `COc1cc2ncnc(Nc3ccc(F)c(Cl)c3)c2cc1OCCCN1CCOCC1` [Gefitinib] + CC(C)n1c(=O)n(C)c2cnc3cc(F)c(-c4ccc(OCCCN5CCCCC5)nc4)cc3c21 [AZD1390] (first compound max 10 µM, 7x7, partner max 0.3 µM), for which the “combination Emax” value worked out at 0.0723 in test [1], 0.387 in test [2] and 0.238 in test [4].
Turning to `COc1cc2c(cc1OCCCCCOc1cc3c(cc1OC)C(=O)N1C=C(C)C[C@H]1C=N3)N=C[C@@H]1CC(C)=CN1C2=O` [SG3199] + O=C(c1cc(Cc2n[nH]c(=O)c3ccccc23)ccc1F)N1CCN(C(=O)C2CC2)CC1 [Olaparib] (first compound max 0.001 µM, 7x7, partner max 10 µM), the “combination Emax” value was 0.118 in test [1], 0.184 in test [2], 0.335 in test [3] and 0.464 in test [4].
Regarding `C[C@@H](c1ccc2nccn2c1)n1nnc2ncc(-c3cnn(C)c3)nc21` [Savolitinib] + CC1(C)CCC(CN2CCN(c3ccc(C(=O)NS(=O)(=O)c4ccc(NCC5CCOCC5)c([N+](=O)[O-])c4)c(Oc4cnc5[nH]ccc5c4)c3)CC2)=C(c2ccc(Cl)cc2)C1 [Venetoclax] (first compound max 1 µM, 7x7, partner max 1 µM), the figures for the “combination Emax” value in test [1], in test [2] and in test [4] were 0.0599, 0.0949 and 0.147, respectively.
Regarding `C[C@@H](c1ccc2nccn2c1)n1nnc2ncc(-c3cnn(C)c3)nc21` [Savolitinib] + Cc1c2c(nn1C)CSCc1cc(n(C)n1)CSc1cc(c3ccccc3c1)OCCCc1c(C(=O)O)n(C)c3c-2c(Cl)ccc13 [AZD5991] (first compound max 1 µM, 7x7, partner max 1 µM), the “combination Emax” value worked out at 0.154 in test [1], 0.273 in test [2] and 0.238 in test [4].
